According to publication PMC11280325, “Design, Synthesis, and Characterization of Novel Thiazolidine-2,4-Dione-Acridine Hybrids as Antitumor Agents” (Molecules, 2024):

How the values were obtained:
MCF-10A = assay: MTT assay, MCF-10A non-cancerous cells; format: cell-based, human; details: non-cancerous epithelial breast cells, 48 h incubation
Protocol: (§1) The non-cancerous cell line MCF-10A (human epithelial breast cells) was cultured in a DMEM F12 medium supplemented with 10% FBS (Invitrogen, Carlsbad, CA, USA), 1× HyClone™ Antibiotic/Antimycotic Solution (GE Healthcare, Piscataway, NJ, USA), insulin, hEGF, and hydrocortisone. The BJ-5ta cells (human dermal fibroblasts) were cultured in a DMEM-M199 4:1 medium mixture, supplemented with 10% FBS and hygromycin B (0.01 mg/mL). The cells were maintained under standard conditions with an atmosphere containing 5% CO2 at 37 °C. Cell viability, estimated by trypan blue exclusion, was consistently greater than 95% before each experiment.
(§2) To evaluate the IC50 (half-maximal inhibitory concentration) and confirm the antiproliferative activity of the tested substances, we employed the colorimetric MTT assay (3-(4,5-dimethylthiazol-2-yl)-2,5-diphenyltetrazolium bromide) (Sigma-Aldrich Chemie, Steinheim, Germany). The cell lines were seeded in 96-well plates at a density of 5 × 10^3 to 10 × 10^3 cells per well. After 24 h, the tested substances, dissolved in the cultivation medium, were added to the cells at final concentrations of 5, 10, 20, and 50 µmol/L. The cells were then incubated for 48 h under standard cultivation conditions. Following the incubation period, MTT was added to each well. The MTT was metabolized by the cells into insoluble formazan crystals, which were subsequently dissolved by adding 100 µL of 10% SDS. After another 24 h, the absorbance was measured at a wavelength of 540 nm using the automated Cytation™ 3 Cell Imaging Multi-Mode Reader (Biotek, Winooski, VT, USA). The experiments were performed in at least three independent repetitions. IC50 values were calculated using a nonlinear regression method.

Bj-5ta = assay: MTT assay, BJ-5ta non-cancerous fibroblasts; format: cell-based, human; details: Homo sapiens, Fibroblast, 48 h, non-cancerous dermal fibroblasts, 48 h incubation
Protocol: as §1, §2

A549 = assay: MTT assay, A549; format: cell-based, human; details: lung adenocarcinoma, 48 h incubation
Protocol: (§3) The human cancer cell lines HeLa (cervical adenocarcinoma), HCT116 (colorectal adenocarcinoma), A2780 (human ovarian adenocarcinoma), A2780cis (human ovarian adenocarcinoma cisplatin-resistant), Jurkat (acute T-lymphoblastic leukemia), and Hep G2 (hepatocellular carcinoma) were cultured in an RPMI 1640 growth medium (Biosera, Kansas City, MO, USA). The cancer cell lines MDA-MB-231 (triple-negative breast adenocarcinoma), A2058 (human melanoma), U87 (human glioblastoma), PATU 8902 (pancreas adenocarcinoma), and A549 (human lung adenocarcinoma) were cultured in a DMEM medium (Biosera, Kansas City, MO, USA). The media were supplemented with 10% fetal bovine serum (FBS) (Invitrogen, Carlsbad, CA, USA) and 1× HyClone™ Antibiotic/Antimycotic Solution (GE Healthcare, Piscataway, NJ, USA).
as §2

Hep G2 = assay: MTT assay, Hep G2; format: cell-based, human; details: hepatocellular carcinoma, 48 h incubation
Protocol: as §3, §2

A2780 = assay: MTT assay, A2780; format: cell-based, human; details: Homo sapiens, A2780, 48 h, ovarian adenocarcinoma, 48 h incubation
Protocol: as §3, §2

HeLa = assay: MTT assay, HeLa; format: cell-based, human; details: cervical adenocarcinoma, 48 h incubation
Protocol: as §3, §2

HCT116 = assay: MTT assay, HCT116; format: cell-based, human; details: colorectal adenocarcinoma, 48 h incubation
Protocol: as §3, §2

PATU = assay: MTT assay, PATU 8902; format: cell-based, human; details: Homo sapiens, PaTu 8902, 48 h, pancreas adenocarcinoma, 48 h incubation
Protocol: as §3, §2

A2058 = assay: MTT assay, A2058; format: cell-based; details: Homo sapiens, A2058, 48 h, human melanoma, 48 h incubation
Protocol: as §3, §2

Compound | IC50 (A549) [µM] | IC50 (A2780) [µM] | IC50 (HeLa) [µM] | IC50 (HCT116) [µM] | melting point | IC50 (A549; Homo sapiens, A549, 48 h) [µM] | IC50 (HeLa; Homo sapiens, HeLa, 48 h) [µM] | IC50 (HCT116; Homo sapiens, HCT-116, 48 h) [µM] | IC50 (MCF-10A; Homo sapiens, MCF-10A, 48 h) [µM] | IC50 (Bj-5ta) [µM] | IC50 (Hep G2) [µM] | IC50 (PATU) [µM] | IC50 (A2058) [µM] | IC50 (MCF-10A) [µM] | IC50 (Hep G2; Homo sapiens, HepG2, 48 h) [µM]
COc1cc(NC(=O)COc2ccc(/C=C3\SC(=O)N(Cc4c5ccccc5nc5ccccc45)C3=O)cc2)cc(OC)c1 [Compound 7b, 2-(4-{[(5Z)-3-[(Acridin-9-yl)methyl]-2,4-dioxo-1,3-thiazolidin-5-ylidene]methyl}phenoxy)-N-(3,5-dimethoxyphenyl)acetamide] | – | > 50 | – | – | 280 to 282 °C | 34.6 ± 5.4 | 11.3 ± 2.75 | 34.5 ± 2.98 | – | > 50 | – | > 50 | > 50 | 28.8 ± 2.3 | > 50
O=C(COc1ccc(/C=C2\SC(=O)N(Cc3cccc4cc5ccccc5nc34)C2=O)cc1)Nc1ccccc1C(F)(F)F [Compound 8e, 2-(4-{[(5Z)-3-[(Acridin-4-yl)methyl]-2,4-dioxo-1,3-thiazolidin-5-ylidene]methyl}phenoxy)-N-[2-(trifluoromethyl)phenyl]acetamide] | – | > 50 | – | 24.3 ± 3.8 | 205 to 206 °C (dec.) | > 50 | 43.3 ± 5.2 | – | > 50 | > 50 | – | > 50 | > 50 | – | > 50
O=C(COc1ccc(/C=C2\SC(=O)N(Cc3c4ccccc4nc4ccccc34)C2=O)cc1)Nc1ccccc1 [Compound 7a, 2-(4-{[(5Z)-3-[(Acridin-9-yl)methyl]-2,4-dioxo-1,3-thiazolidin-5-ylidene]methyl}phenoxy)-N-phenylacetamide] | > 50 | > 50 | – | 37.6 ± 4.2 | 249 to 250 °C | – | 24.3 ± 3.8 | – | – | > 50 | – | > 50 | > 50 | > 50 | > 50

The next lines start with results.

IC50 (A549) [µM] | IC50 (A2780) [µM] | IC50 (HeLa) [µM] | IC50 (HCT116) [µM] | melting point | IC50 (A549; Homo sapiens, A549, 48 h) [µM] | IC50 (HeLa; Homo sapiens, HeLa, 48 h) [µM] | IC50 (HCT116; Homo sapiens, HCT-116, 48 h) [µM] | Compound | IC50 (MCF-10A; Homo sapiens, MCF-10A, 48 h) [µM] | IC50 (Bj-5ta) [µM] | IC50 (Hep G2) [µM] | IC50 (PATU) [µM] | IC50 (A2058) [µM] | IC50 (MCF-10A) [µM] | IC50 (Hep G2; Homo sapiens, HepG2, 48 h) [µM]
> 50 | > 50 | 44.2 ± 4.1 | 23.1 ± 5.7 | 228 to 230 °C (dec.) | – | – | – | COc1cc(/C=C2\SC(=O)N(Cc3cccc4cc5ccccc5nc34)C2=O)ccc1OCC(=O)Nc1cc(OC)c(OC)c(OC)c1 [Compound 13c, 2-(4-{[(5Z)-3-[(Acridin-4-yl)methyl]-2,4-dioxo-1,3-thiazolidin-5-ylidene]methyl}-2-methoxyphenoxy)-N-(3,4,5-trimethoxyphenyl)acetamide] | > 50 | > 50 | > 50 | > 50 | 42.5 ± 0.25 | – | –
– | > 50 | – | > 50 | 269 to 270 °C | > 50 | 11.5 ± 3.3 | – | COc1cc(/C=C2\SC(=O)N(Cc3c4ccccc4nc4ccccc34)C2=O)ccc1OCC(=O)Nc1cccc(C(F)(F)F)c1 [Compound 12f, 2-(4-{[(5Z)-3-[(Acridin-9-yl)methyl]-2,4-dioxo-1,3-thiazolidin-5-ylidene]methyl}-2-methoxyphenoxy)-N-[3-(trifluoromethyl)phenyl]acetamide] | > 50 | > 50 | – | > 50 | > 50 | – | > 50
– | > 50 | 9.4 ± 0.3 | – | 288 to 290 °C | 31.2 ± 1.1 | – | 14.6 ± 1.7 | COc1cc(/C=C2\SC(=O)N(Cc3c4ccccc4nc4ccccc34)C2=O)ccc1OCC(=O)Nc1ccc([N+](=O)[O-])cc1 [Compound 12d, 2-(4-{[(5Z)-3-[(Acridin-9-yl)methyl]-2,4-dioxo-1,3-thiazolidin-5-ylidene]methyl}-2-methoxyphenoxy)-N-(4-nitrophenyl)acetamide] | > 50 | > 50 | – | > 50 | > 50 | – | > 50
